Patent publication US20250114473A1, “COMPOUND FOR CONJUGATION, CONJUGATE AND PHARMACEUTICAL COMPOSITION COMPRISING THE SAME” (priority 2023, published 2025)
Numbered stars: 1 amine (or outer) side, 2 acyl side, 3 side chain; on linkers, the order of the positions; unused ones are H or OH. Square brackets hold non-standard residues; d marks the D form. Peptide text beside a SMILES is read from it. * marks the point of attachment. Dolaproine = CO[C@@H]([C@@H]1CCCN1)[C@@H](C)C(=O)O; Dil = CC[C@H](C)[C@H](NC)[C@@H](CC(=O)O)OC; PABC = O=C(OCc1ccc(N[*:1])cc1)[*:2]; X1 = C[C@@H](N*)[C@@H](O)c1ccccc1; Cit = NC(=O)NCCC[C@H](N)C(=O)O; NMeV = CN[C@H](C(=O)O)C(C)C

What was measured:
[1] = system: SK-BR-3 (HER2 3+); assay: Cell toxicity testing of moiety-drug conjugates (CCK-8); type: cell-based; conditions: 0-500 nM
Procedure: (§1) The experiment involved optimizing seeding densities (1.5×10^3 to 1.5×10^4 cells/well) for each cell line (SK-BR-3, MCF-7, MDA-MB-231, MDA-MB-436) in 90 IL, of culture medium per well in a 96-well plate for 2-hour incubation. Next, 10 μL of a series of diluted ADC solutions (0-500 nM) were added to each well. The concentration of each ADC solution and measurements at four time points (24, 48, 72, and 96 hours) were conducted in triplicate. […] Data analysis was performed with GraphPad Prism 8.0.1, employing a four-parameter logistic curve-fit program.

[2] = system: MCF-7 (HER2 1+); assay: as above; type: cell-based
Procedure: as §1

[3] = system: MDA-MB-436 (HER2−); assay: as above; type: cell-based; conditions: 0-500 nM
Procedure: as §1

[4] = system: MDA-MB-231 (HER2−); assay: as above; type: cell-based; conditions: 0-500 nM
Procedure: as §1

[5] = Plasma stability, released drug by LC-MS/MS; type: in vitro ADME; conditions: for free drug percentage: 13 days; for drug release trend: over a 13-day period
From the text: To further advance the research, a set of the compounds in the present disclosure, FL-F21N-L111-P204 and FL-F21N-L106-P204, each containing single-arm and dual-arm respectively, was selected for plasma stability testing in both humans and rats. These were then compared in detail with commercially available Deruxtecan (Dxd) and VC-PAB-MMAE to evaluate their stability and safety in blood.
These calculations were based on standard drugs (e.g., Eribulin, MMAE, Dxd) and they were accurately measured using liquid chromatography-tandem mass spectrometry (LC-MS/MS). […] This trend provides an in-depth understanding of the drug release dynamics.
These experimental results provide crucial data supporting the efficacy and safety of the compounds in the present disclosure.

[6] = Water solubility testing (dissolved with minimal DMSO, precipitated by addition of water); type: physicochemical; conditions: precipitated by addition of water to DMSO solution
Procedure: Briefly, the moiety-compound conjugates was dissolved with minimal DMSO and precipitated by the addition of water. […] However, Entry 5 and Entry 4 are conjugates with two-arm, with no PEG linker or two PEG4 linker, respectively, which were precipitated in 19.5% and 30.8% Water/DMSO. Thus, the results of water solubility of the conjugates are consistent with the inventors' hypothesis.

[7] = system: SK-BR-3 (HER2 3+); assay: Anti-proliferation assay (CCK-8) of linker-drug combinations, drugs and cleaved products; type: cell-based; conditions: 0-1000 nM
Procedure: (§2) Additionally, a series of experiments were conducted, including anti-proliferation assays for linker-drug combinations (i.e. the compounds in the present disclosure), the drugs thereof, and the cleaved products thereof after cleavage by the Cathepsin B enzyme in cells. These assays were performed using HER2-expressing cell lines. MCF-7 and SK-BR-3 cell lines were seeded at a density of 1.5×10^3 to 1×10^4 cells/well in 90 μL of the corresponding culture medium, and cultured at 37° C. in a CO2 incubator (Forma/ThermoFisher (370) or BINDER (CB130)) with a range of dilutions (0-1000 nM) of the compounds in the present disclosure, the drugs thereof, and the cleaved products thereof. Cell density for each sample was recorded by measuring the absorbance of Cell Counting Kit-8 (CCK-8) at 450 nm. Data analysis was performed using GraphPad Prism 8.0.1, and the best-fit four-parameter dose-response curve was selected. Half Maximal Inhibitory Concentration (IC50) values were determined via nonlinear regression; consistency between batches was assessed using One-way ANOVA. The relevant experimental results are detailed in Table 4. […] Such reduced toxicity of the linker-drug combinations (i.e, the compounds in the present disclosure) offers significant advantages in moiety-drug conjugate applications, including better biocompatibility, enhanced therapeutic efficacy, and greater dosing flexibility.

[8] = system: MCF-7 (HER2 1+); assay: as above; type: cell-based
Procedure: as §2

Compound	IC50 [1] [nM]	IC50 ([2]; 0-500 nM) [nM]	IC50 [3] [nM]	IC50 [4] [nM]	Precipitation in % Water/DMSO [6] [%]	IC50 [7] [nM]	IC50 ([8]; 0-1000 nM) [nM]	also measured
Trastuzumab-Mal-Val-Cit-PAB-(Eribulin)2 [A701-L107-P204-D08]	0.0172	0.0229						
Trastuzumab-Mal-Val-Cit-PAB-(PEG4-Eribulin)2 [A701-L106-P204-D08]	0.0216	0.0229	14.6	75.2				
Mal-Val-Cit-PAB-(PEG4-Eribulin)2 [FL-F21N-L106-P204]					30.8	13	26.3	free drug percentage ([5]; human plasma): 2.74%; drug release trend ([5]; human plasma): stable drug release trends; free drug percentage ([5]; rat plasma): 3.50%; drug release trend ([5]; rat plasma): stable drug release trends
CC[C@H](C)[C@@H]([C@@H](CC(=O)N1CCC[C@H]1[C@H](OC)[C@@H](C)C(=O)N[C@H](C)[C@@H](O)c1ccccc1)OC)N(C)C(=O)[C@@H](NC(=O)[C@H](C(C)C)N(C)C(=O)OCc1ccc(NC(=O)[C@H](CCCNC(N)=O)NC(=O)[C@@H](N)C(C)C)cc1)C(C)C [VC-PAB-MMAE, reference compound] (H-V[Cit][PABC][NMeV]V[Dil][Dolaproine]-X1)								free drug percentage ([5]; human plasma): 0.56%; free drug percentage ([5]; rat plasma): 5.03%
Trastuzumab-Mal-Val-Cit-PAB-PEG4-Eribulin [A701-L111-P204-D04]	0.012	3.83	> 250	148				
Deruxtecan [L155-P209 (Deruxtecan), reference compound]						432	512	free drug percentage ([5]; human plasma): 5.19%; free drug percentage ([5]; rat plasma): 0.70%
C=C1C[C@@H]2CC[C@@]34C[C@H]5O[C@H]6[C@@H](O3)[C@H]3O[C@H](CC[C@@H]3O[C@H]6[C@H]5O4)CC(=O)C[C@@H]3[C@@H](OC)[C@@H](C[C@H](O)CN)O[C@H]3C[C@H]3O[C@@H](CC[C@@H]1O2)C[C@@H](C)C3=C [P204, Eribulin, reference compound]								IC50 ([3]; Homo sapiens): 1.28 nM; IC50 ([1]; Homo sapiens): 0.244 nM; IC50 ([2]; Homo sapiens, MCF7, 0-500 nM): 0.337 nM; IC50 ([4]; Homo sapiens): 2.07 nM; IC50 ([7]; Homo sapiens): 0.244 nM; IC50 ([8]; Homo sapiens, MCF7, 0-1000 nM): 0.337 nM
Mal-Val-Cit-PAB-(Eribulin)2 [FL-F21N-L107-P204]					19.5	9.24	14.2	
Dxd [P209, reference compound]	5.51	9.53	5.12	135		5.51	9.53	
C=C1C[C@@H]2CC[C@@]34CC5O[C@H]6C(O3)[C@H]3O[C@H](CC[C@@H]3O[C@H]6[C@H]5O4)CC(=O)C[C@@H]3[C@@H](OC)[C@@H](C[C@H](O)CNC(=O)OCCOCCOCCOCCNC(=O)OCc4ccc(NC(=O)[C@H](CCCNC(N)=O)NC(=O)[C@@H](NC(=O)CCCCCN5C(=O)C=CC5=O)C(C)C)cc4)O[C@H]3CC3O[C@@H](CCC1O2)C[C@@H](C)C3=C [FL-F21N-L111-P204, Mal-Val-Cit-PAB-PEG4-Eribulin]					24.5			drug release trend ([5]; human plasma): stable drug release trends; drug release trend ([5]; rat plasma): stable drug release trends; IC50 ([7]; Homo sapiens): 30.8 nM; IC50 ([8]; Homo sapiens, MCF7, 0-1000 nM): 45.5 nM
C=C1C[C@@H]2CC[C@@]34CC5O[C@H]6[C@@H](O3)[C@H]3O[C@H](CC[C@@H]3O[C@H]6C5O4)CC(=O)C[C@H]3C(C[C@H]4OC(CC[C@@H]1O2)C[C@@H](C)C4=C)O[C@H](C[C@H](O)CNC(=O)OCCOCCOCCOCCOCCOCCOCCOCCOCCOCCOCCOCCNC(=O)OCc1ccc(NC(=O)[C@H](CCCNC(N)=O)NC(=O)[C@@H](NC(=O)CCCCCN2C(=O)C=CC2=O)C(C)C)cc1)[C@@H]3OC (stereo partly drawn) [FL-F21N-L162-P204, Mal-Val-Cit-PEG12-Eribulin]					31.5			
Trastuzumab-Mal-Val-Cit-PAB-PEG4-Eribulin [A701-L111-P204-D08]	0.012	0.045	33	> 250				
C=C1C[C@@H]2CC[C@@]34CC5O[C@H]6[C@@H](O3)[C@H]3O[C@H](CC[C@@H]3O[C@H]6C5O4)CC(=O)C[C@H]3C(C[C@H]4OC(CC[C@@H]1O2)C[C@@H](C)C4=C)O[C@H](C[C@H](O)CNC(=O)OCCOCCOCCOCCOCCOCCOCCOCCOCCOCCOCCOCCOCCOCCOCCOCCOCCOCCOCCOCCOCCOCCOCCOCCNC(=O)OCc1ccc(NC(=O)[C@H](CCCNC(N)=O)NC(=O)[C@@H](NC(=O)CCCCCN2C(=O)C=CC2=O)C(C)C)cc1)[C@@H]3OC (stereo partly drawn) [FL-F21N-L163-P204, Mal-Val-Cit-PEG24-Eribulin]					38.9			
